In patent publication US10184112B2, “Culture medium additive for use in serum-free culturing of animal cell, kit and use thereof” (Two Cells Co., Ltd., priority 2006, dated 2019):
Entries after “also recorded” stand apart in the source; their conditions may differ.

system: Erk 1/2; assay: Mitogenic signal transduction, western blot for phosphorylated Erk 1/2 (FIGS. 11, 12); assay type: cell-based; settings: human mesenchymal stem cells stimulated; compared with controlled cells (not stimulated)
Procedure: For the purpose of clarifying a mechanism of cell proliferation in a serum-free culture medium, study was further conducted on activation of a mitogenic signal transduction system caused by each additive factor added into a serum-free culture medium. An active state of the mitogenic signal transduction system caused by each additive factor was analyzed by a western blot method. Here, in protein phosphoenzymes that are particularly closely related to cell proliferation, an extracellular signal control kinase Erk 1/2 and an Akt (a protein phosphoenzyme located downstream to PI3K, and related to regulations of cell functions) were focused in the present example. When the Erk1 1/2 and the Akt are phosphorylated, they are converted into active forms. […] The cultured cells were washed twice with PBS, and were then further cultured for 16 hours in a serum-free culture medium containing 1.25 mg/ml of BSA (bovine serum albumin). After that, the cultured cells were incubated for minutes respectively: (i) in stimulating solutions respectively containing growth factors (E: EGF, F: FGF, G: PDGF, H: HGF, I: insulin, J: TGF-β), dexamethasone (D), transferrin (T); […] B1, A6: phosphatidic acid, A7: phosphatidyl choline); and (iii) in a controlling solution containing none of them. Further, each of the stimulating solutions, and the controlling solution were removed by suction on ice, and then, the cells were washed twice with PBS. The cells thus washed were dissolved in lysis buffer. The resultant cell lysis solution was centrifuged by 6.500 g for 10 minutes, and its supernatant liquid was electrophoresed on 10% SDS-polyacrylamide gel. Proteins thus separated into fractions were transferred on a PVDF membrane (made by Millipore Co.), and then, the fractions were analyzed with antiphosphorylation-specific Erk 1/2 antibody, or antiphosphorylation-specific Akt antibody (both are made by Cell Signaling technology Inc.).

Compound	phosphorylation of the Erk 1/2
3-sn-phosphatidic acid from egg yolk	strongly promoted
EGF: epidermal growth factor	more phosphorylated
PDGF	more phosphorylated
FGF: growth factor of the fibroblast growth factor family, preferably FGF-2 (bFGF)	more phosphorylated
CCCCC/C=C\C/C=C\C/C=C\C/C=C\CCCC(=O)O [arachidonic acid]	promoted
insulin: medium supplement	more phosphorylated
HGF: growth factor added to the serum-free culture medium	more phosphorylated; also recorded: promoted in view of concentration dependence
3-sn-phosphatidyl choline from egg yolk	promoted
CCCCC/C=C\C/C=C\CCCCCCCC(=O)O [linoleic acid]	promoted
CCCCCCCC/C=C\CCCCCCCC(=O)O [oleic acid]	promoted

system: human mesenchymal stem cell; assay: not given; settings: added to a culture medium containing 10% FBS; cited from earlier work

Compound	proliferation of a human mesenchymal stem cell	wingless/int (wnt) signal pathway
[Cl-].[Li+] [lithium chloride]	promoting proliferation	activates

system: Akt; assay: Mitogenic signal transduction, western blot for phosphorylated Akt (FIGS. 11, 12); assay type: cell-based; settings: human mesenchymal stem cells stimulated; compared with controlled cells (not stimulated)
Procedure: For the purpose of clarifying a mechanism of cell proliferation in a serum-free culture medium, study was further conducted on activation of a mitogenic signal transduction system caused by each additive factor added into a serum-free culture medium. An active state of the mitogenic signal transduction system caused by each additive factor was analyzed by a western blot method. Here, in protein phosphoenzymes that are particularly closely related to cell proliferation, an extracellular signal control kinase Erk 1/2 and an Akt (a protein phosphoenzyme located downstream to PI3K, and related to regulations of cell functions) were focused in the present example. When the Erk1 1/2 and the Akt are phosphorylated, they are converted into active forms. In a culture medium containing 10% FBS on a 12-well plate, human mesenchymal stem cells (three cell lines) were cultured until the cells were in a subconfluent state. The cultured cells were washed twice with PBS, and were then further cultured for 16 hours in a serum-free culture medium containing 1.25 mg/ml of BSA (bovine serum albumin). […] Proteins thus separated into fractions were transferred on a PVDF membrane (made by Millipore Co.), and then, the fractions were analyzed with antiphosphorylation-specific Erk 1/2 antibody, or antiphosphorylation-specific Akt antibody (both are made by Cell Signaling technology Inc.).

Compound	phosphorylation of the Akt
3-sn-phosphatidic acid from egg yolk	strongly promoted
HGF: growth factor added to the serum-free culture medium	also promoted
